Source: patent US20040058852A1, “Use of gap-junction blockers in neurodegenerative disease” (priority 2002, published 2004)
“Also recorded” adds a separate entry of the source.

How the values were obtained:
newborn infants = newborn infants or heart surgery using deep hypothermic circulatory arrest; cited from earlier work
[1] = system: secondary edema following focal hypoxic-ischemic insult; conditions: experimental animal models; cited from earlier work
[2] = system: brain damage in immature fetuses and newborn infants; conditions: randomized double-blind trials; cited from earlier work
infarcts after stroke = conditions: applied before the induction of stroke; cited from earlier work
[3] = system: synaptic transmission in CA1 stratum radiatum of hippocampal slice cultures; experiment: Schaffer collateral-evoked excitatory postsynaptic potentials in slice cultures 24 hr post-HI; format: cell-based, Sprague-Dawley rat; conditions: 75 μM, 45 min HI
Description: Organotypic hippocampal slice cultures were prepared from 9- to 12-day old Sprague-Dawley rat pups (Charles River, Wilmington, Del.) of both sexes (Stoppini et al., 1991). Rats were decapitated under deep ketamine anesthesia, the hippocampi rapidly dissected out and placed immediately into ice-cold dissection medium containing: 3.5 mM KCl, 0.5 mM NaH2PO4, 10 mM MgSO4, 5 mM NaHCO3, 118 mM n-methyl-D-glucosamina, 1.1 mM KH2PO4, 10 mM HEPES, 20 mM D-glucose, pH 7.35, gassed with 95% O2/5% CO2. Transverse slices of hippocampus plus entorhinal cortex were cut using a spring-loaded grid of 20 μm diameter wires spaced 400 μm apart. […]
Slice cultures were placed in an interface recording chamber between artificial cerebrospinal fluid (ACSF; perfusion rate 3 ml/min) and a humidified atmosphere of 95% O2/5% CO2. […] Extracellular excitatory postsynaptic potentials (EPSPs) were recorded (2 M NaCl-filled electrodes) in stratum radiatum and elicited by bipolar Schaffer collateral stimulation (intensities 20-200 μA), recorded using an Axopatch 200A amplifier in current-clamp mode.

[4] = intraperitoneal and subcutaneous injections; cited from earlier work
[5] = system: rat pups subjected to intrauterine hypoxic-ischemia; experiment: Intrauterine hypoxic-ischemia (transient global anoxia during C-section delivery): survival, growth, histopathology; format: in vivo; conditions: for survived reperfusion / mortality: 75 mg/Kg
Description: Sprague Dawley fetuses were subjected to transient global anoxia during C-section delivery (Bjelke et al., 1991; Brake et al., 1997). Pregnant rats at term (21 days gestation) were decapitated, the abdomen incised, and the uterus was quickly isolated from its blood supply and surrounding fat tissue and connective tissue. Acute anoxia was induced by immersing the intact uterus containing the fetuses into 37° C. saline for 12.5-15 min. […] Blood gases and pH Samples were analyzed for blood gases and pH on a blood gas monitor (RapidLab 855, Bayer,UK).
Animals were deeply anesthetized with ketalar and perfused via a transcardiac site after which brains were removed, rinsed with saline and fixed in formaldehyde buffered to pH 7.35. Brains were cut into sagittal sections, sliced in 2 mm cross-sections (Braintree Scientific Inc, Mass.), dehydrated with a tissue processor (TP1050, Leica Instruments, Germany), embedded in paraffin, sectioned with a Leica freezing microtome, and stained with haematoxylon-eosin.
Groups were compared by ANOVA or Student's t-test, as appropriate, with group size pre-selected based on P<0.05 significance criterion.

caspase-3 = experiment: Western blot of activated caspase-3 in whole brain 24 hr after intrauterine HI; format: in vivo, rat; conditions: for HI-induced increase of activated caspase-3 in whole brain: 75 mg/kg i.p. immediately after HI, 24 hr
Description: Protein was extracted from whole-brain 24 hr following HI and concentration determined with a BCA Protein Assay Kit (Pierce, Rockford, Ill.). Twenty-five μg protein/sample was applied per lane and separated by electrophoresis in 10% or 10-20% SDS-polyacrylamide gels (BioRad, Hercules, Calif.) and transferred to nitrocellulose membranes (Schleicher and Schuell, Keene, N.H.). Membranes were blotted […] with cleaved caspase-3 ([…]) antibody (1:700) overnight at 4° C., and then incubated in horseradish peroxidase-conjugated anti-rabbit IgG 1:1500. […] As an internal control, glyceraldehyde-3-phosphate dehydrogenase (GAPDH) was blotted with horseradish peroxidase-conjugated goat antimouse IgG at a concentration of 1:4000. Densitometriy of chemiluminescent bands was quantified using Scion Image densitometer software (NIH), and band densities normalized to GAPDH density in the same gel.

[6] = system: CA1 pyramidal neurons in organotypic hippocampal slice cultures; format: cell-based, Sprague-Dawley rat
Description: Organotypic hippocampal slice cultures were prepared from 9- to 12-day old Sprague-Dawley rat pups (Charles River, Wilmington, Del.) of both sexes (Stoppini et al., 1991). Rats were decapitated under deep ketamine anesthesia, the hippocampi rapidly dissected out and placed immediately into ice-cold dissection medium containing: 3.5 mM KCl, 0.5 mM NaH2PO4, 10 mM MgSO4, 5 mM NaHCO3, 118 mM n-methyl-D-glucosamina, 1.1 mM KH2PO4, 10 mM HEPES, 20 mM D-glucose, pH 7.35, gassed with 95% O2/5% CO2. Transverse slices of hippocampus plus entorhinal cortex were cut using a spring-loaded grid of 20 μm diameter wires spaced 400 μm apart. Slices were immediately transferred into dissection medium, separated and placed on semi-permeable membrane tissue culture inserts (Millipore Corporation, Bedford, Mass.) in a 6-well plate, each well containing 1 ml of culture medium (50% Minimum Essential Medium, 25% Hank's balanced salt solution, 25% heat-inactivated horse serum, 13 mM HEPES, 2.5 mg/ml glucose). Cultures were maintained at 35° C. in a humidified 5% CO2 incubator and medium was changed every 2-3 days.
After 6-10 days in culture, hippocampal slice cultures were exposed to hypoxia-ischemia (HI) by transient oxygen and glucose deprivation. Slices were transferred into another six-well plate containing 1 ml of Ringermannitol glucose-free medium per well, containing 1.25 mM CaCl2, 0.9 mM MgSO4, 5.4 mM KCl, 0.44 mM KH2PO4, 137 mM NaCl, 4.2 mM NaHCO3, 0.35 mM NaH2PO4, 16.7 mM HEPES, and 27.5 mM mannitol, and placed in a hypoxic box continuously gassed with 95% N2/5% CO2 for 45 min. They were then returned to normal medium with carbon dioxide until measurement of neuronal death.
Carbenoxolone (disodium salt) was purchased from Sigma (St. Louis, Mo.), propidium iodide and carboxyfluorescein diacetate from Molecular Probes (Eugene, Oreg.). Cleaved caspase-3 antibody was purchased from Cell Signaling (Beverly, Mass.).
Media containing 1 μM PI was applied for 10 min to slices and PI-labeled dead cells imaged using […] filters. IPLab (Signal Analytics Corp.) and NIH image analysis programs were used to quantitate total fluorescence intensity for equal regions of interest within the CA1 pyramidal cell body layer (stratum pyramidale).

[7] = system: gap junction coupling in hippocampal slice cultures; experiment: Fluorescence recovery after photobleaching (FRAP) in CA1 fields of hippocampal slice cultures; format: cell-based, Sprague-Dawley rat; design: dose or concentration left out as unconfirmed
Description: Fluorescence recovery in CA1 fields of hippocampal slice cultures was evaluated as in Wade et al., 1986. Hippocampal slice cultures were loaded by 45 min application of carboxyfluorescein diacetate (30 μM). CA1 fields of view were photobleached for 2 min using the 488 nm laser line of a confocal microscope (Nikon RCM 8000) and images acquired at low power at 1 min intervals thereafter. Quantitative image analysis was performed using Polygon-Star software (Nikon).

[8] = system: neonatal rats with seizures following intrauterine HI insults; experiment: Behavioral and electrographic (EEG) seizures after intrauterine hypoxic-ischemia; format: in vivo, rat; design: ischemic pups that died: dose or concentration left out as unconfirmed; conditions: for behavioral seizures following HI insults: i.p. at the onset of motor seizures; for electrographic seizures (EEG epileptiform activity): i.p., EEG 40 min after administration, one pup
Source text: Rat pups were delivered by C-section. One group was subjected to intra-uterine hypoxic-ischemia, the control group was also delivered by caesarian-section but not subjected to a period of hypoxic-ischemia.
Surviving animals in all groups were examined neuropathologically at 21 days following delivery (P21).

[9] = i.p. to newborn rats at least 15 min after HI

In the case of Oc1ncnc2[nH]ncc12 [Allopurinol], the “outcome in clinical trials” value (newborn infants) is listed as “has not been successful” and the “severity of secondary edema” value [1] is listed as “reduced”.
For O=S(=O)([O-])[O-].[Mg+2] [magnesium sulfate], the “protective effect against brain damage” value [2] is listed as “did not provide a protective effect”.
In the case of CCCCCCCCO [octanol], the infarct size (infarcts after stroke) is given as “reduced infarct size; also recorded: reduce the size of infarcts”.
For CC1(C)[C@@H](OC(=O)CCC(=O)O)CC[C@]2(C)[C@H]3C(=O)C=C4[C@@H]5C[C@@](C)(C(=O)O)CC[C@]5(C)CC[C@@]4(C)[C@]3(C)CC[C@@H]12 [carbenoxolone, Carbenoxolone], the “protection against loss of synaptic transmission in CA1 stratum radiatum (EPSP)” value [3] is given as “very effective”, the “crossing of normoxic foeto-placental and adult blood-brain barriers” value [4] is given as “has been shown to cross” and the survived reperfusion ([5]; 4 hrs) is given as 76.5±9%. It also gave a mortality ([5]; 4 hrs of reoxygenation/recirculation after perinatal HI) of 23.5%, a survived reperfusion ([5]; 24 hrs) of 73±9.5% and a mortality ([5]; 24 hrs after perinatal HI) of 27%. The survived reperfusion ([5]; 48 hrs) was 70±12.5%, the mortality ([5]; 48 hrs after perinatal HI) was 30% and the cerebellar damage ([5]; 75 mg/kg i.p. after intrauterine HI) was “preventing cerebellar damage”. For the same compound, the “extent of histopathological damage in the hippocampus and neocortex” value ([5]; 75 mg/kg i.p. after intrauterine HI, n=5) was “dramatically reduced”, the “long-term development assessed by size” value ([5]; 75 mg/kg immediately after intrauterine HI, compared to HI alone (FIG. 3d)) was “improves” and the survival rate ([5]; 21 days post-HI) was 70±12%. The “crossing of the blood-brain barrier” value [5, 9] was “cross the blood-brain barrier in sufficient time and concentration”, the “long-term damage induced by HI” value [5, 9] was “markedly reduce” and the body weight ([5]; postnatal day 21, HI rats) was 29.2 ± 3 g. The “HI-induced increase of activated caspase-3 in whole brain” value (caspase-3) was “largely prevented”, the “HI-induced increase of activated caspase-3 in whole brain” value (caspase-3; listed as Carbenoxolone) was “reduced the activation” and the “activation of caspase-3, reduced to” value (caspase-3; 75 mg/kg i.p. immediately after perinatal HI, 24 hr post-HI, relative to HI alone) was 43±15%. The “caspase-3 band densities (normalized to GAPDH)” value (caspase-3; HI+Carb, 75 mg/kg i.p., 24 hr post-HI) was 302±115, the “viability or morphology of control organotypic slice cultures” value [6] was “did not detectably alter” and the “neuroprotection when applied in vitro” value ([6]; 75 μM) was “marked neuroprotection”. For the same compound, the “delayed death of CA1 pyramidal neurons assessed by PI staining intensity” value ([6]; 75 μM added 30 min prior to, during and 60 min after a 45 min HI insult, 24 hr following HI) was “markedly reduced”, the “PI fluorescence 24 hr post-HI in hippocampal slice culture” value ([6]; 75 μM, 60 min after the end of the HI episode (FIG. 2c)) was “reduced PI fluorescence” and the “gap junction coupling in slice cultures” value [7] was “effective at reducing gap junction coupling”. For the same compound, the “behavioral seizures following HI insults” value [8] was “absence of seizures; also recorded: abolishes”, the “behavioral seizures following HI insults” value ([8]; listed as Carbenoxolone) was “stopped” and the “electrographic seizures (EEG epileptiform activity)” value [8] was “loss of electrographic epileptiform activity; also recorded: abolishes”. For the same compound, the “electrographic seizures (EEG epileptiform activity)” value ([8]; listed as Carbenoxolone) was “stopped” and the “ischemic pups that died” value ([8]; treated with carbenoxolone) was “One of 12”.
